Results taken from patent publication US20160375019A1, “TREATMENT OF CHRONIC GRAFT VERSUS HOST DISEASE WITH SYK INHIBITORS” (Gilead Sciences, Inc., priority 2015, published 2016).

Legend:
[1] = tested on: basophils (CD63 expression) in human whole blood; experiment: 384-well HTBS Whole Blood CD63 Basophil Assay; format: cell-based; conditions: human whole blood (25% blood); for EC50: Homo sapiens, anti-FceRI mAb activation; for IC50: comparison table
Experimental: Syk activity was assessed in relation to reduced activation of basophils as measured by the expression of CD63 in a human whole blood basophil cellular assay (25% blood). Basophil activation was measured in human whole blood using the Flow CAST kit (Buhlmann Laboratories AG, Baselstrasse, Switzerland) following the protocol provided by the manufacturer with minor modifications. Fresh human whole blood in heparin was collected and delivered same day (AllCells, Emeryville, Calif.). Whole blood samples were incubated with either DMSO (1% final) or serial diluted compounds in DMSO for 60 minutes at 37° C. Basophils were activated using the anti-FceRI mAb and stained with anti-CD63-FITC and anti-CCR3-PE for 20 minutes at 37° C. (per well: 50 μL of whole blood was mixed with 113 μL of stimulation buffer, 8.5 μL anti-FceRI mAb, 8.5 μL Ab stain CCR3-PE/CD63-FITC). Cells were centrifuged at 1000×g for 18 minutes and 150 μL/well of supernatant removed. Red blood cells were lysed and cells fixed by 2 rounds of cell lysing: resuspending cell pellets with 150 μL/well 1× lysis buffer, incubating at room temperature for 10 minutes, and collecting cell pellets by centrifuging for 1200 rpms for 5 minutes. Cells were washed with 150 μL/well wash buffer twice, and resuspended in a final volume of 75 μL/well of wash buffer for either immediate flow cytometery analysis or overnight incubation at 4° C. followed by flow cytometry analysis. Degranulation (basophil activation) was detected by CD63 surface expression on CCR3 positive cells. The percent CD63 positive cells within the gated basophil population were determined and normalized to the DMSO (negative control) and control compound (positive control).

hepatocytes = format: in vitro ADME; conditions: human
Experimental: The human […] stability of the compounds as predicted hepatocyte clearance in L/hr/kg was assessed. Compounds to be tested were diluted to 200 μM (4 μl of 10 mM DMSO stock into 196 μl ACN:H2O (50:50). Propranolol was used as a positive control, and buffer only without hepatocytes as 0% control. These were further diluted 4 μl with 891 μl KHB buffer (InVitroGRO catalog number Z99074) to provide 2× dosing solution. To each well of 24 well plate, 250 μl of the 2× dosing solution was added to each well with 250 μl of hepatocytes cells (1×10^6 viable cells/ml per well) or KHB for control samples to achieve a final compound concentration of 1 μM during incubation. The final solvent concentration was 0.01% DMSO and 0.25% ACN. The culture plate was placed on a rocker and incubated at 37° C., 5% CO2. Samples were collected at time 0, 1, 3, and 6 hours. The loss of parent compound was determined using LC-MS methods against a standard curve.

[2] = Kinetic Solubility in phosphate buffer at pH 7.4; format: physicochemical; conditions: 37 °C, aqueous buffer, kinetic from dmso stock; phosphate buffer pH 7.4
Experimental: The kinetic solubility of compounds in phosphate buffer at pH 7.4 was assessed. The compounds to be tested were dissolved in dimethylsulfoxide at a 10 mM concentration. Stock samples were diluted, 3 μl with 297 μl of the phosphate buffer at pH 7.4 (DulBecco's phosphate buffered saline (Sigma-Aldrich D8662), overall molarity is 0.149 M and pH 7.43). The samples were then incubated for 24 hours at 37° C. with shaking, the centrifuged and an aliquot taken and tested relative to a known standard concentration of 0.1 mM.

[3] = tested on: aberrant GVHD B-cell populations; conditions: ex vivo; cited from earlier work

| EC50 [1] [µM] | IC50 [1] [µM] | Hheps CL (hepatocytes) [L/h/kg] | solubility kinetic at 24 h [2] [µM] | SMILES | function and frequency of aberrant GVHD B-cell populations [3] |
| --- | --- | --- | --- | --- | --- |
| < 0.2 | 0.157 | 0.08 | > 90 | Cc1c(-c2cncc(N)n2)nc(Nc2ccc(N3CCN(C4COC4)CC3)cc2)c2nccn12 [Ex.-4, 6-(6-aminopyrazin-2-yl)-5-methyl-N-(4-(4-(oxetan-3-yl)piperazin-1-yl)phenyl)imidazo[1,2-a]pyrazin-8-amine] |  |
| < 0.2 | 0.12 | 0.07 | > 90 | Nc1cncc(-c2cn3ccnc3c(Nc3ccc(N4CCN(C5COC5)CC4)c(OCCO)c3)n2)n1 [Ex.-5, 2-(5-((6-(6-aminopyrazin-2-yl)imidazo[1,2-a]pyrazin-8-yl)amino)-2-(4-(oxetan-3-yl)piperazin-1-yl)phenoxy)ethanol] |  |
| < 0.2 | 0.128 | 0.08 | > 90 | Nc1cncc(-c2cn3ccnc3c(Nc3ccc(N4CCN(CC(CO)CO)CC4)cc3)n2)n1 [Ex.-6, 2-((4-(4-((6-(6-aminopyrazin-2-yl)imidazo[1,2-a]pyrazin-8-yl)amino)phenyl)piperazin-1-yl)methyl)propane-1,3-diol] |  |
|  |  |  |  | COc1cc(Nc2ncc(F)c(Nc3ccc4c(n3)N(COP(=O)(O)O)C(=O)C(C)(C)O4)n2)cc(OC)c1OC [fostamatinib] | selectively reduce the function and frequency of aberrant GVHD B-cell populations |
|  | 0.063 | 0.09 | > 90 | Nc1cncc(-c2cn3ccnc3c(Nc3ccc(N4CCO[C@@H](CO)C4)cc3)n2)n1 [Ex.-3, (R)-(4-(4-((6-(6-aminopyrazin-2-yl)imidazo[1,2-a]pyrazin-8-yl)amino)phenyl)morpholin-2-yl)methanol] |  |
